Reference: patent US11072588B2, “Barbituric acid derivatives comprising cationic and lipophilic groups” (UNIVERSITETET I TROMSØ—NORGES ARKTISKE UNIVERSITET, priority 2017, dated 2021)
Values after ≈ are worked out from the molar mass of the structure shown.

What was measured:
[1] = system: E. coli 50639799; assay: MIC, multi-resistant clinical isolate; assay type: cell-based, Escherichia coli
Procedure: (§1) Working solutions of the test derivatives were prepared with up to 100% DMSO and stored at −20° C. If necessary, the solutions were heated to 40-80° C. before testing to facilitate complete dissolution. Double-distilled water was used in all dilutions prepared. […] A microdilution susceptibility test was used for MIC determination according to Clinical and Laboratory Standards Institute, “Methods for Dilution Antimicrobial Sisceptibility Tests for Bacteria That Graw Aerobically”, Approved Standard M07-A9, edition 2012, with modifications as described by Igumnova et al (Bioorg Med Chem, 2016, 24 (22), 5884-5894).
(§2) Briefly, the bacterial inoculum was adjusted to approximately 2.5-3×10^4 cells/mL in Mueller-Hinton broth (MHB, Difco Laboratories, USA), and incubated in a ratio of 1:1 with test derivatives in polystyrene 96-well flat-bottom microplates (NUNC, Roskilde, Denmark). Positive growth control (without test derivatives) and negative control (without bacteria) were included. The reference antibiotic was oxytetracycline hydrochloride (Sigma Aldrich, Saint Louis, Mo., USA). The microplates were incubated in an EnVision microplate reader (Perkin-Elmer, Turku, Finland) placed in an incubator set to 35° C. for 48 h. The MIC value was defined as the lowest concentration of derivative resulting in no bacterial growth as determined by OD600 measurement. All derivatives were tested in three parallels.
(§3) The MIC was determined as explained above with some exceptions; working solutions of test derivatives were prepared from concentrated DMSO stocks stored at room temperature, the density of the bacterial inoculum was increased 40× to 1-1.2×10^6 cells/mL, enterococci were incubated in Brain Heart Infusion broth (BHIB, Difco Laboratories, USA), the microplates were incubated for 24 h, and the derivatives were tested in four parallels.

[2] = system: E. coli 50739822; assay: MIC, multi-resistant clinical isolate; assay type: cell-based, Escherichia coli
Procedure: as §1, §2, §3

[3] = system: E. coli 50857972; assay: MIC, multi-resistant clinical isolate; assay type: cell-based, Escherichia coli
Procedure: as §1, §2, §3

[4] = system: E. coli 50579417; assay: MIC, multi-resistant clinical isolate; assay type: cell-based, Escherichia coli
Procedure: as §1, §2, §3

[5] = system: E. coli 50676002; assay: MIC, multi-resistant clinical isolate; assay type: cell-based, Escherichia coli
Procedure: as §1, §2, §3

[6] = system: P. aeruginosa 50692520; assay: MIC, multi-resistant clinical isolate; assay type: cell-based, Pseudomonas aeruginosa
Procedure: as §1, §2, §3

[7] = system: P. aeruginosa K34-7; assay: MIC, multi-resistant clinical isolate; assay type: cell-based, Pseudomonas aeruginosa
Procedure: as §1, §2, §3

[8] = system: P. aeruginosa K44-24; assay: MIC, multi-resistant clinical isolate; assay type: cell-based, Pseudomonas aeruginosa
Procedure: as §1, §2, §3

[9] = system: S. aureus strain WIS; assay: MIC, multi-resistant clinical isolate; assay type: cell-based, Staphylococcus aureus
Procedure: as §1, §2, §3

[10] = system: S. aureus IHT 99040; assay: MIC, multi-resistant clinical isolate; assay type: cell-based, Staphylococcus aureus
Procedure: as §1, §2, §3

[11] = system: S. aureus strain 85/2082; assay: MIC, multi-resistant clinical isolate; assay type: cell-based, Staphylococcus aureus
Procedure: as §1, §2, §3

[12] = system: S. aureus N315; assay: MIC, multi-resistant clinical isolate; assay type: cell-based, Staphylococcus aureus
Procedure: as §1, §2, §3

[13] = system: S. aureus NCTC 10442; assay: MIC, multi-resistant clinical isolate; assay type: cell-based, Staphylococcus aureus
Procedure: as §1, §2, §3

[14] = system: panel of 30 multi-resistant clinical isolates of Gram-positive and Gram-negative bacteria; assay: MIC screening, ranges over the panel of clinical isolates; assay type: cell-based; conditions: read-out: MIC values against S. aurues, E. faecium and E. coli
Procedure: as §1, §2, §3

[15] = system: human metastatic melanoma (A2058, ATCC CRL-11147) cells; assay: Anti-cancer activity against A2058 cells; assay type: cell-based; conditions: A2058, read-out: Anti-cancer IC50
Procedure: Cytotoxicity of the test compounds was evaluated after 72 hour exposure to human metastatic melanoma (A2058, ATCC CRL-11147) cells.
A2058 cells were grown overnight (2,000 cells/well), and then incubated with the test compounds (range of concentrations) diluted in MEM Earle's supplemented with gentamycin (10 μg/mL), non-essential amino acids (1%), sodium pyruvate (1 mM), L-alanyl-Lglutamine (2 mM), but without FBS (total volume was 100 μl) for […]. Ten μL of CellTiter 96® AQueous One Solution Reagent (Promega, Madison, Wis., USA) was added, and the plates were then further incubated for 1 hour.
Absorbance was measured at 485 nm in a DTX 880 Multimode Detector. Results were calculated as % survival compared to negative (assay media) and positive (Triton X-100; Sigma-Aldrich) controls.

[16] = system: E. faecium K36-18; assay: MIC, multi-resistant clinical isolate; assay type: cell-based, Enterococcus faecium
Procedure: as §1, §2, §3

[17] = system: E. faecium 50901530; assay: MIC, multi-resistant clinical isolate; assay type: cell-based, Enterococcus faecium
Procedure: as §1, §2, §3

[18] = system: E. faecium 50758899; assay: MIC, multi-resistant clinical isolate; assay type: cell-based, Enterococcus faecium
Procedure: as §1, §2, §3

[19] = system: E. faecium 50673722; assay: MIC, multi-resistant clinical isolate; assay type: cell-based, Enterococcus faecium
Procedure: as §1, §2, §3

[20] = Escherichia coli, read-out: Antimicrobial activity (MIC)
[21] = Enterococcus faecium, read-out: Antimicrobial activity (MIC)

NCCCCN1C(=O)N(CCCCN)C(=O)C(Cc2cc(Br)cc(Br)c2)(Cc2cc(Br)cc(Br)c2)C1=O [7(ii)]
MIC [1, 20]: 8 µg/mL (≈ 10.4 µM)
selectivity index (EC50/MIC) ([1]; RBC EC50 / MIC): (10)
MIC [2, 20]: 8 µg/mL (≈ 10.4 µM)
selectivity index (EC50/MIC) ([2]; RBC EC50 / MIC): (10)
MIC [3, 20]: 8 µg/mL (≈ 10.4 µM)
selectivity index (EC50/MIC) ([3]; RBC EC50 / MIC): (10)
MIC [4, 20]: 8 µg/mL (≈ 10.4 µM)
selectivity index (EC50/MIC) ([4]; RBC EC50 / MIC): (10)
MIC ([5]; Escherichia coli, 50676002, read-out: Antimicrobial activity (MIC)): 8 µg/mL (≈ 10.4 µM)
selectivity index (EC50/MIC) ([5]; RBC EC50 / MIC, E. coli 50676002): (10)
MIC ([6]; Pseudomonas aeruginosa, read-out: Antimicrobial activity (MIC)): 16 µg/mL (≈ 20.9 µM)
selectivity index (EC50/MIC) ([6]; RBC EC50 / MIC): (5)
MIC ([7]; Pseudomonas aeruginosa, K347, read-out: Antimicrobial activity (MIC)): 16 µg/mL (≈ 20.9 µM)
selectivity index (EC50/MIC) ([7]; RBC EC50 / MIC, P. aeruginosa K34-7): (5)
MIC ([8]; Pseudomonas aeruginosa, K4424, read-out: Antimicrobial activity (MIC)): 16 µg/mL (≈ 20.9 µM)
selectivity index (EC50/MIC) ([8]; RBC EC50 / MIC): (5)
selectivity index (EC50/MIC) ([9]; RBC EC50 / MIC, S. aureus strain WIS): (21)
MIC ([9]; Staphylococcus aureus, read-out: Antimicrobial activity (MIC)): 4 µg/mL (≈ 5.22 µM)
selectivity index (EC50/MIC) ([10]; RBC EC50 / MIC): (21)
MIC ([10]; Staphylococcus aureus, IHT99040, read-out: Antimicrobial activity (MIC)): 4 µg/mL (≈ 5.22 µM)
selectivity index (EC50/MIC) ([11]; RBC EC50 / MIC, S. aureus strain 85/2082): (21)
MIC ([11]; Staphylococcus aureus, 85/2082, read-out: Antimicrobial activity (MIC)): 4 µg/mL (≈ 5.22 µM)
selectivity index (EC50/MIC) ([12]; RBC EC50 / MIC, S. aureus N315): (21)
MIC ([12]; Staphylococcus aureus, N315, read-out: Antimicrobial activity (MIC)): 4 µg/mL (≈ 5.22 µM)
selectivity index (EC50/MIC) ([13]; RBC EC50 / MIC, S. aureus NCTC 10442): (21)
MIC ([13]; Staphylococcus aureus, NCTC10442, read-out: Antimicrobial activity (MIC)): 4 µg/mL (≈ 5.22 µM)
MIC [14]: 4 to 8 µg/mL (≈ 5.22 to 10.4 µM)
IC50 [15]: 1 µg/mL (≈ 1.31 µM)
MIC ([16]; Enterococcus faecium, K3618, read-out: Antimicrobial activity (MIC)): 8 µg/mL (≈ 10.4 µM)
selectivity index (EC50/MIC) ([16]; RBC EC50 / MIC, E. faecium K36-18): (10)
MIC [17, 21]: 4 µg/mL (≈ 5.22 µM)
selectivity index (EC50/MIC) ([17]; RBC EC50 / MIC): (21)
MIC [18, 21]: 4 µg/mL (≈ 5.22 µM)
selectivity index (EC50/MIC) ([18]; RBC EC50 / MIC): (21)
MIC [19, 21]: 4 µg/mL (≈ 5.22 µM)
selectivity index (EC50/MIC) ([19]; RBC EC50 / MIC): (21)
